From patent US10583109B2, “Use of silver(I) complexes as anticancer agents” (University of Johannesburg, priority 2012, dated 2020)
“Also recorded” adds a separate entry of the source.

System: peripheral blood mononucleocytes (PBMCs)
Assay: Trypan blue viability assay of PBMCs (non-cancerous cells)
Type: cell-based
Details: PBMCs from a healthy donor
Text: To evaluate the relative toxicity on non-tumorigenic tissues, the ideal is to compare the effect of the compounds to a similar cell line that is non-cancerous. The Applicant is currently in the process of purchasing these cell lines and will evaluate the toxicity of the compounds in the near future. However, the Applicant did evaluate the effect of the complexes of the instant invention on peripheral blood mononucleocytes (PBMCs) isolated from fresh whole blood samples from a healthy donor. This already gives a good indication of the potential toxicity of complexes (1)-(5) in an in vivo environment.
The percentage viability of differentially treated PBMCs (peripheral blood mononucleocytes) for complexes (1)-(5) was determined by the Trypan blue viability assay, as shown in FIG. 10. Cells were treated with complexes (1)-(5). Cells treated with 0.1% DMSO and 100 μM Cisplatin were used as a vehicle and apoptotic control respectively. The SEM is indicated as error bars (n=2).

With [AgSCN{P(4-FC6H4)3}2]2 [complex (3)] the “toxicity on PBMCs (decrease in viability)” value was “much lower degree of toxicity; also recorded: significantly lower degree of toxicity”.
